# Legend:
# Assay in all cases: relative viability (nuclei count vs DMSO), 5 days (fraction); higher = more cells survive
# Pemetrexed + Tozasertib = compound: Nc1nc2[nH]cc(CCc3ccc(C(=O)N[C@@H](CCC(=O)O)C(=O)O)cc3)c2c(=O)[nH]1 [Pemetrexed] + Cc1cc(Nc2cc(N3CCN(C)CC3)nc(Sc3ccc(NC(=O)C4CC4)cc3)n2)n[nH]1 [Tozasertib] (partner 0.1 µM)
# Summary of the method: (§1)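 Lung cancer cell lines in 1536-well plates were dosed by pin tool the day after seeding, either with one drug alone or with a fixed anchor-drug dose plus five library-drug doses (not always all listed) in √10 steps. After 5 days, cells were fixed and their nuclei stained in one step (final 0.05% Triton X-100, 1% formaldehyde, 1 ug/ml Hoechst), then counted on 4× images. Relative viability is the nuclei count in treated wells divided by that in vehicle wells. Values are medians of duplicate plates.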
# Idelalisib + Crizotinib = compound: CC[C@H](Nc1ncnc2[nH]cnc12)c1nc2cccc(F)c2c(=O)n1-c1ccccc1 [Idelalisib] + C[C@@H](Oc1cc(-c2cnn(C3CCNCC3)c2)cnc1N)c1c(Cl)ccc(F)c1Cl [Crizotinib] (partner 1 µM)
# Summary of the method: as §1
# Pemetrexed + Palbociclib = compound: Nc1nc2[nH]cc(CCc3ccc(C(=O)N[C@@H](CCC(=O)O)C(=O)O)cc3)c2c(=O)[nH]1 [Pemetrexed] + CC(=O)c1c(C)c2cnc(Nc3ccc(N4CCNCC4)cn3)nc2n(C2CCCC2)c1=O [Palbociclib] (partner 0.5 µM)
# Summary of the method: as §1
# Pemetrexed + Pictilisib = compound: Nc1nc2[nH]cc(CCc3ccc(C(=O)N[C@@H](CCC(=O)O)C(=O)O)cc3)c2c(=O)[nH]1 [Pemetrexed] + CS(=O)(=O)N1CCN(Cc2cc3nc(-c4cccc5[nH]ncc45)nc(N4CCOCC4)c3s2)CC1 [Pictilisib] (partner 1 µM)
# Summary of the method: as §1
Cell Line,relative viability (Pemetrexed + Tozasertib; first compound 0.002 µM),relative viability (Pemetrexed + Tozasertib; first compound 0.006325 µM),relative viability (Pemetrexed + Tozasertib; first compound 0.02 µM),relative viability (Pemetrexed + Tozasertib; first compound 0.06325 µM),relative viability (Pemetrexed + Tozasertib; first compound 0.2 µM),relative viability (Idelalisib + Crizotinib; first compound 0.04 µM),relative viability (Idelalisib + Crizotinib; first compound 0.1265 µM),relative viability (Idelalisib + Crizotinib; first compound 0.4 µM),relative viability (Idelalisib + Crizotinib; first compound 1.265 µM),relative viability (Idelalisib + Crizotinib; first compound 4 µM),relative viability (Pemetrexed + Palbociclib; first compound 0.002 µM),relative viability (Pemetrexed + Palbociclib; first compound 0.006325 µM),relative viability (Pemetrexed + Palbociclib; first compound 0.02 µM),relative viability (Pemetrexed + Palbociclib; first compound 0.06325 µM),relative viability (Pemetrexed + Palbociclib; first compound 0.2 µM),relative viability (Pemetrexed + Pictilisib; first compound 0.002 µM),relative viability (Pemetrexed + Pictilisib; first compound 0.006325 µM),relative viability (Pemetrexed + Pictilisib; first compound 0.02 µM),relative viability (Pemetrexed + Pictilisib; first compound 0.06325 µM),relative viability (Pemetrexed + Pictilisib; first compound 0.2 µM)
LU99A,0.259,0.325,0.338,0.272,0.249,0.625,0.638,0.578,0.614,0.643,0.409,0.389,0.407,0.397,0.407,0.329,0.295,0.332,0.334,0.256
NCI-H650,0.666,0.691,0.826,0.734,0.74,0.947,0.673,0.652,0.664,0.669,0.344,0.298,–,0.348,0.313,0.831,0.756,0.861,0.786,0.851
NCI-H2347,0.337,0.516,0.595,0.589,0.356,0.586,0.734,0.64,0.851,0.666,0.448,0.413,0.505,0.4,0.388,0.392,0.545,0.601,0.525,0.606
HARA,0.13,0.0932,0.123,0.0911,0.0832,1.2,0.988,0.894,0.988,0.991,0.241,0.277,0.228,0.231,0.234,0.465,0.374,0.436,0.235,0.204
NCI-H2228,0.318,–,0.266,0.209,0.173,0.476,0.389,0.354,0.413,0.355,0.579,0.755,0.746,0.341,0.268,0.194,0.427,0.379,0.35,0.238
EKVX,0.373,0.398,0.37,0.367,0.263,0.83,0.897,0.633,0.753,0.752,0.386,0.365,0.407,0.399,0.284,0.408,0.441,0.418,0.432,0.269
HCC-827,0.377,0.414,0.441,0.44,0.335,0.978,0.943,0.864,0.927,0.838,0.386,0.413,0.529,0.44,0.327,0.74,0.973,0.929,0.95,0.664
NCI-H1755,0.575,0.571,0.619,0.615,0.458,0.812,0.878,0.832,0.745,0.671,0.488,0.423,0.478,0.448,0.412,0.327,0.416,0.532,0.45,0.318
NCI-H661,0.368,0.325,0.349,0.348,0.351,1.04,–,1.08,1.14,0.943,0.501,0.419,0.405,0.415,0.386,0.487,0.402,0.438,–,0.424
NCI-H1944,–,0.306,0.269,0.241,0.242,1.38,0.994,1.02,0.976,0.97,0.286,0.304,0.339,0.312,0.343,0.307,0.345,0.337,0.345,0.327
NCI-H23,0.311,0.36,0.514,0.347,0.395,0.723,0.56,0.277,0.533,0.387,0.451,0.439,0.448,0.503,0.473,0.395,0.416,0.538,0.516,0.408
HCC-366,0.0686,0.0859,0.205,0.126,0.124,0.891,0.398,0.471,0.464,0.411,0.356,0.349,0.349,0.367,0.226,0.193,0.133,0.151,0.127,0.14
ChaGo-K-1,0.24,0.218,0.25,0.212,0.176,1.38,1.13,1.1,1.15,1.17,0.959,0.888,0.971,0.668,0.369,0.609,0.793,0.597,0.224,0.28
LCLC-97TM1,0.184,0.245,0.315,0.254,0.284,0.338,0.212,–,0.422,0.295,0.225,0.228,0.206,0.21,0.259,0.163,0.159,0.173,0.133,0.115
EMC-BAC-2,0.327,0.255,0.296,0.278,0.244,0.788,0.796,0.676,0.742,0.732,0.51,0.461,0.543,0.493,0.466,0.534,0.465,0.564,0.579,0.421
NCI-H441,0.66,0.484,0.827,0.515,0.342,1.15,0.702,–,0.68,0.654,0.212,0.229,0.211,0.18,0.204,0.46,0.463,0.595,0.322,0.268

Cell Line,relative viability (Pemetrexed + Tozasertib; first compound 0.002 µM),relative viability (Pemetrexed + Tozasertib; first compound 0.006325 µM),relative viability (Pemetrexed + Tozasertib; first compound 0.02 µM),relative viability (Pemetrexed + Tozasertib; first compound 0.06325 µM),relative viability (Pemetrexed + Tozasertib; first compound 0.2 µM),relative viability (Idelalisib + Crizotinib; first compound 0.04 µM),relative viability (Idelalisib + Crizotinib; first compound 0.1265 µM),relative viability (Idelalisib + Crizotinib; first compound 0.4 µM),relative viability (Idelalisib + Crizotinib; first compound 1.265 µM),relative viability (Idelalisib + Crizotinib; first compound 4 µM),relative viability (Pemetrexed + Palbociclib; first compound 0.002 µM),relative viability (Pemetrexed + Palbociclib; first compound 0.006325 µM),relative viability (Pemetrexed + Palbociclib; first compound 0.02 µM),relative viability (Pemetrexed + Palbociclib; first compound 0.06325 µM),relative viability (Pemetrexed + Palbociclib; first compound 0.2 µM),relative viability (Pemetrexed + Pictilisib; first compound 0.002 µM),relative viability (Pemetrexed + Pictilisib; first compound 0.006325 µM),relative viability (Pemetrexed + Pictilisib; first compound 0.02 µM),relative viability (Pemetrexed + Pictilisib; first compound 0.06325 µM),relative viability (Pemetrexed + Pictilisib; first compound 0.2 µM)
LCLC-103H,0.451,0.366,0.515,0.443,0.443,1.03,0.986,0.957,1.09,0.839,0.465,0.454,0.496,0.443,0.479,0.639,0.588,0.714,0.61,0.669
HOP-62,0.334,0.306,0.409,0.368,0.349,0.944,0.964,–,0.806,1.03,0.363,0.479,0.555,0.452,0.37,0.351,0.666,0.817,0.655,0.655
NCI-H1355,0.532,0.516,0.554,0.632,0.586,1.21,1.13,0.977,0.988,0.902,0.372,0.391,0.391,0.413,0.402,0.294,0.383,0.377,0.481,0.428
COR-L23,0.229,0.196,0.197,0.12,0.105,0.881,0.678,0.67,0.712,0.393,0.21,0.275,0.254,0.149,0.127,0.58,0.688,0.825,0.24,0.147
HCC-44,0.903,0.945,1.15,0.853,0.372,0.822,0.857,0.819,0.948,0.85,0.909,0.95,0.934,0.972,0.99,1.52,0.61,0.654,0.537,0.395
A-427,0.232,0.2,0.213,0.509,0.218,1.05,1.04,0.789,1.05,0.755,0.505,0.529,0.572,0.509,0.483,0.646,0.759,0.804,0.746,0.642
NCI-H520,0.42,0.475,0.447,0.412,0.45,0.782,0.727,0.717,0.737,0.623,0.225,0.238,0.271,0.243,0.248,0.247,0.254,0.349,0.322,0.275
LXF-289,0.165,0.19,0.194,0.163,0.183,0.839,0.818,0.778,0.909,0.825,0.593,0.623,0.589,0.594,0.557,0.756,0.759,0.844,0.827,0.701
NCI-H2087,0.257,0.276,0.287,0.297,0.232,0.894,0.911,0.901,1.1,0.93,0.161,0.221,0.245,0.217,0.214,0.692,0.79,0.938,0.67,0.581
CAL-12T,0.337,0.276,0.329,0.286,0.277,0.769,0.636,0.562,0.635,0.518,0.338,0.435,0.575,0.438,0.341,0.426,0.484,0.451,0.416,0.389
PC-14,0.661,0.564,0.676,0.416,0.222,0.821,0.947,0.882,0.905,0.908,0.578,0.501,0.471,0.185,0.118,0.663,0.618,0.642,0.321,0.133
NCI-H1915,0.403,0.439,0.45,0.417,0.425,0.989,0.865,0.848,0.979,0.895,0.487,0.512,0.568,0.521,0.522,0.786,0.933,1.13,0.929,0.957
NCI-H647,0.309,0.246,0.297,0.208,0.128,1.43,1.03,0.815,0.859,0.7,0.353,0.352,0.393,0.288,0.158,0.283,0.449,0.355,0.382,0.202
NCI-H322M,0.513,0.505,0.486,0.504,0.452,1,0.842,0.792,0.687,0.809,0.465,0.458,0.494,0.509,0.462,0.29,0.449,0.553,0.49,0.567
NCI-H2170,0.714,0.644,0.636,0.829,0.602,1.23,1.18,1.07,1.07,0.983,0.371,0.396,0.435,0.416,0.378,0.303,0.307,0.242,0.305,0.276
BEN,0.547,0.423,0.57,0.548,0.457,0.875,1.06,0.751,0.886,0.661,0.544,0.473,0.531,0.457,0.458,0.53,0.564,0.591,0.539,0.525

# — the supplement of paper PMC10307832
